Measured values: patent publication US8080539B2, “Method of treating human preeclampsia employing resibufagenin” (Scott and White Healthcare, priority 2004, dated 2011)
Several values for one entry are separate records, joined by “and”; a condition that tells them apart may be missing. Equal values may be shown once.

Legend:
pregnant rats = test: Blood pressure (tail cuff) in pregnant rats made hypertensive with MBG, then treated with RBG; type: in vivo, rat
Procedure: In order to confirm the effectiveness of RBG, experiments were performed. In the experiment, a group of four pregnant rats was provided with a blood pressure cuff on their tails in order to determine the base line blood pressure as shown in the table. In order to create hypertension, MBG was administered to the rats.
A dosage of approximately 7 mg per kg of rat weight with the rats weighing in the range of about 200-250 g was employed daily in order to determine the effectiveness of resibufagenin in the treatment of preeclampsia. The dosage was administered intraperitonially and the rats monitored after about three to four days of treatment. The MBG and RBG were administered in a suitable vehicle such as dimethylsulfoxide (DMSO).

[1] = tested on: vessels from preeclamptic rats; test: Perfusion of dissected vessels from preeclamptic rats with marinobufagenin; set-up: species or system rat; details: vessels from preeclamptic rats perfused with marinobufagenin; average
Text: (§1) It is elevated substantially more in preeclamptic rats.

[2] = tested on: vessels from normal pregnant animals or rats; test: Perfusion of dissected vessels from normal pregnant rats with marinobufagenin; set-up: species or system rat; details: vessels from normal pregnant rats perfused with marinobufagenin
Text: as §1

cellular systems = details: cited from earlier work

| Compound | BP after MBG (pregnant rats; individual pregnant rats, tail blood pressure cuff, MBG administered to create hypertension) | constriction of vessels as compared with control [1] | constriction of vessels [2] | change in blood pressure after treatment with RBG (pregnant rats; all four pregnant rats, approximately 7 mg per kg daily intraperitoneally, about three to four days) | BP after RBG (pregnant rats; individual pregnant rats made hypertensive with MBG, RBG approximately 7 mg per kg daily intraperitoneally in DMSO, after about three to four days of treatment) | biological effect in cellular systems (cellular systems) |
| --- | --- | --- | --- | --- | --- | --- |
| C[C@]12CC[C@H](O)C[C@@]1(O)CC[C@@H]1[C@@H]2CC[C@]2(C)[C@@H](c3ccc(=O)oc3)C[C@H]3O[C@]132 [MBG, marinobufagenin] | 125 mmHg and 130 mmHg and 115 mmHg and 135 mmHg | about 36% | do not constrict | – | – | – |
| C[C@]12CC[C@H](O)C[C@H]1CC[C@@H]1[C@@H]2CC[C@]2(C)[C@@H](c3ccc(=O)oc3)C[C@H]3O[C@]132 [RBG, Resibufagenin] | – | – | – | substantial reduction in blood pressure | 95 mmHg and 120 mmHg and 110 mmHg and 105 mmHg | no biological effect |
